Assay results from patent publication EP0597303A2, “Cephalosporin derivatives” (priority 1992, dated 1994).
Where a name gives a salt, the structure may show the parent alone. Read-outs that look alike come from different tables or passages of the source.

How the values were obtained:
Test in all cases: MIC, Agar (Mueller Hinton) Dilution Method
Type in all cases: cell-based
E. coli 1573E = details: Escherichia coli
Text: (§1) The in vitro activity of the compounds of formula I of the present invention as measured by the Minimum Inhibitory Concentration (MIC) in micrograms/ml utilizing the Agar (Mueller Hinton) Dilution Method against a variety of Gram-positive and Gram-negative organisms, is set forth in Table 1.

E. coli DC-2 = details: Escherichia coli, DC2, Gram Negative
Text: as §1

Prot. vulgaris 100 = details: Proteus vulgaris, Gram Negative
Text: as §1

Staph. aureus Evans = details: Staphylococcus aureus
Text: as §1

Bacillus subtilis 558 = tested on: Bacillus subtilis 558
Text: as §1

[1] = tested on: Ps. aeruginosa ATCC 27853; details: Pseudomonas aeruginosa, ATCC27853, Gram Negative
Text: as §1

E. coli 2722B = details: Escherichia coli, Gram Negative
Text: as §1

E. coli B = details: Escherichia coli, Gram Negative
Text: as §1

Cit. freundii EL-1408 = details: Citrobacter freundii, EL1408; Cit. freundii EL-1408; Gram Negative; read-out: MIC
Text: as §1

Ps. aeruginosa 765 = details: Pseudomonas aeruginosa, Gram Negative
Text: as §1

Prot. mirabilis 90 = details: Proteus mirabilis; Prot. mirabilis 90; Gram Negative; read-out: MIC
Text: as §1

E. coli 1269B = details: Escherichia coli, Gram Negative
Text: as §1

Prov. rettgeri ATCC 9250 = details: Providencia rettgeri, ATCC9250, Gram Negative
Text: as §1

Ent. faecalis ATCC 29212 = details: Enterococcus faecalis, ATCC29212, Gram Positive and Others
Text: as §1

Candida albicans 155 = details: Gram Positive and Others
Text: as §1

Serratia marcescens SM = details: Serratia marcescens SM; constitutive ß-lactamase producer; Gram Negative; read-out: MIC
Text: as §1

E. coli 1894 E = details: Escherichia coli
Text: as §1

Staph. aureus 1059B = details: Staphylococcus aureus; Staph. aureus 1059B; Gram Positive and Others; read-out: MIC
Text: as §1

[2] = tested on: Str. pneumoniae N82-012-MC; details: Streptococcus pneumoniae, N82012MC; Str. pneumoniae N82-012-MC; Gram Positive and Others; read-out: MIC
Text: as §1

Staph. aureus ATCC 25923 = details: Staphylococcus aureus, ATCC25923, Gram Positive and Others
Text: as §1

Ps. cepacia 1973 B = details: Burkholderia cepacia, Gram Negative
Text: as §1

[3] = tested on: Citrobacter freundii BS-16; details: BS16; Citrobacter freundii BS-16; constitutive ß-lactamase producer; Gram Negative; read-out: MIC
Text: as §1

E. coli 4 = details: Escherichia coli
Text: as §1

[4] = tested on: Proteus vulgaris ATCC 6380; details: ATCC6380; Proteus vulgaris ATCC 6380; constitutive ß-lactamase producer; Gram Negative; read-out: MIC
Text: as §1

Ps. aeruginosa B = details: Pseudomonas aeruginosa, Gram Negative
Text: as §1

Prot. mirabilis 2 = details: Proteus mirabilis; Prot. mirabilis 2; Gram Negative; read-out: MIC
Text: as §1

A. calcoaceticus PCI-3 = details: Acinetobacter calcoaceticus, PCI3, Gram Negative
Text: as §1

Staph. aureus 3037B = details: Staphylococcus aureus; Staph. aureus 3037B; Gram Positive and Others; read-out: MIC
Text: as §1

[5] = tested on: Staphylococcus aureus Smith; details: Staphylococcus aureus Smith; Gram Positive and Others; read-out: MIC
Text: as §1

Ser. sp. 101 = details: Ser. sp. 101; Gram Negative; read-out: MIC
Text: as §1

Enter. cloacae 4946 = details: Enterobacter cloacae, Gram Negative
Text: as §1

Ps. aeruginosa K799/WT = details: Pseudomonas aeruginosa, Gram Negative
Text: as §1

Ps. aeruginosa 56 = details: Pseudomonas aeruginosa, Gram Negative
Text: as §1

Enterobacter cloacae P99 = tested on: Enterobacter cloacae P99
Text: as §1

E. coli HMS1 = details: Escherichia coli
Text: as §1

Bacillus megaterium 164 = details: Priestia megaterium; Bacillus megaterium 164; Gram Positive and Others; read-out: MIC
Text: as §1

K. pneumoniae 369 = details: Klebsiella pneumoniae; K. pneumoniae 369; Gram Negative; read-out: MIC
Text: as §1

Staph. aureus 753 = details: Staphylococcus aureus; Staph. aureus 753; methicillin-resistant; Gram Positive and Others; read-out: MIC
Text: as §1

[6] = tested on: Streptococcus pneumoniae 6303; details: Streptococcus pneumoniae, 6303
Text: as §1

| SMILES | MIC (E. coli DC-2) [µg/mL] | MIC (Prot. vulgaris 100) [µg/mL] | MIC [1] [µg/mL] | MIC (E. coli 2722B) [µg/mL] | MIC (E. coli B) [µg/mL] | MIC (Cit. freundii EL-1408) [µg/mL] | MIC (Ps. aeruginosa 765) [µg/mL] | MIC (Prot. mirabilis 90) [µg/mL] | MIC (E. coli 1269B) [µg/mL] | MIC (Prov. rettgeri ATCC 9250) [µg/mL] | MIC (Ent. faecalis ATCC 29212) [µg/mL] | MIC (Candida albicans 155) [µg/mL] | MIC (Serratia marcescens SM) [µg/mL] | MIC (Staph. aureus 1059B) [µg/mL] | MIC [2] [µg/mL] | MIC (Staph. aureus ATCC 25923) [µg/mL] | MIC (Ps. cepacia 1973 B) [µg/mL] | MIC [3] [µg/mL] | MIC [4] [µg/mL] | MIC (Ps. aeruginosa B) [µg/mL] | other results |
| --- | --- | --- | --- | --- | --- | --- | --- | --- | --- | --- | --- | --- | --- | --- | --- | --- | --- | --- | --- | --- | --- |
| O=C(Cc1cccs1)N[C@@H]1C(=O)N2C(C(=O)O)=C(COC(=O)N3CCN(c4c(F)cc5c(=O)c(C(=O)O)cn(C6CC6)c5c4F)CC3)CS[C@H]12 [Formula Ia, [6R,7R]-3-[[[[4-(3-Carboxy-1-cyclopropyl-6,8-difluoro-1,4-dihydro-4-oxo-7-quinolinyl)-1-piperazinyl]carbonyl]-oxy]-methyl]-8-oxo-7-[(2-thienylacetyl)amino]-5-thia-1-azabicyclo-[4.2.0]oct-2-ene-2-carboxylic acid] | 0.25 | 0.125 | 1 | ≤ 0.0156 | 0.0313 | 0.25 | 2 | 0.5 | 0.0313 | 0.25 | 4 | > 128 | 0.5 | 0.25 | 0.0313 | 0.25 | 4 | 0.0313 | 0.125 | 0.5 | MIC (E. coli 1573E; 1573E): 0.0625 µg/mL; MIC (Staph. aureus Evans; Staph. aureus Evans, Gram Positive and Others, read-out: MIC): 0.5 µg/mL; MIC (Bacillus subtilis 558; Bacillus subtilis 558, Gram Positive and Others, read-out: MIC): 0.0313 µg/mL; MIC (E. coli 1894 E; 1894E): 0.0625 µg/mL; MIC (E. coli 4; E. coli 4, Gram Negative, read-out: MIC): 0.125 µg/mL; MIC (Prot. mirabilis 2): 0.25 µg/mL; MIC (A. calcoaceticus PCI-3): 0.25 µg/mL; MIC (Staph. aureus 3037B): 1 µg/mL; MIC [5]: 0.25 µg/mL; MIC (Ser. sp. 101): 0.5 µg/mL; MIC (Enter. cloacae 4946): 0.0625 µg/mL; MIC (Ps. aeruginosa K799/WT): 2 µg/mL; MIC (Ps. aeruginosa 56): 1 µg/mL; MIC (Enterobacter cloacae P99): ≤ 0.0156 µg/mL; MIC (E. coli HMS1; E. coli HMS1, Gram Negative, read-out: MIC): ≤ 0.0156 µg/mL; MIC (Bacillus megaterium 164): 0.125 µg/mL; MIC (K. pneumoniae 369): 0.5 µg/mL; MIC (Staph. aureus 753): 0.5 µg/mL |
| N#CCC(=O)N[C@@H]1C(=O)N2C(C(=O)O)=C(COC(=O)NC3CCN(c4c(F)cc5c(=O)c(C(=O)O)cn(C6CC6)c5c4F)C3)CS[C@H]12 (some centres unmarked) [Formula Ib, [6R,7R]-3-[[[[[1-(3-Carboxy-1-cyclopropyl-6,8-difluoro-1,4-dihydro-4-oxo-7-quinolinyl-3-[R,S]-pyrrolidinyl]-amino]carbonyl]oxy]methyl]-7-[(cyanoacetyl)amino]-8-oxo-5-thia-1-azabicyclo[4.2.0]oct-2-ene-2-carboxyiic acid monosodium salt] | 0.25 | 0.25 | 1 | ≤ 0.0156 | 0.0625 | 0.25 | 1 | 1 | 0.0625 | 0.25 | 2 | > 128 | 0.25 | 0.25 | 0.5 | 0.25 | 2 | 0.0625 | 0.25 | 0.25 | MIC (E. coli 1573E; E. coli 1573E, Gram Negative, read-out: MIC): 0.0625 µg/mL; MIC (Staph. aureus Evans): 0.125 µg/mL; MIC (Bacillus subtilis 558; Bacillus subtilis, 558): 0.125 µg/mL; MIC (E. coli 1894 E; E. coli 1894 E, Gram Negative, read-out: MIC): 0.0625 µg/mL; MIC (E. coli 4; 4): 0.125 µg/mL; MIC [6]: 0.125 µg/mL; MIC (Prot. mirabilis 2): 0.25 µg/mL; MIC (A. calcoaceticus PCI-3): 0.25 µg/mL; MIC (Staph. aureus 3037B): 0.25 µg/mL; MIC [5]: 0.25 µg/mL; MIC (Ser. sp. 101): 0.25 µg/mL; MIC (Enter. cloacae 4946): 0.125 µg/mL; MIC (Ps. aeruginosa K799/WT): 0.5 µg/mL; MIC (Ps. aeruginosa 56): 0.5 µg/mL; MIC (Enterobacter cloacae P99): 0.0313 µg/mL; MIC (E. coli HMS1; HMS1): 0.0313 µg/mL; MIC (Bacillus megaterium 164): 0.0625 µg/mL; MIC (K. pneumoniae 369): 0.25 µg/mL; MIC (Staph. aureus 753): 0.25 µg/mL |
